Entries after “also recorded” stand apart in the source; their conditions may differ. Like-named read-outs stand apart in the source and are kept apart here.
Legend:
[1] = test system: SH-SY5Y cells; assay: Intracellular sulfide levels in SH-SY5Y cells (HPLC); type: cell-based, Human
Description: Human neuroblastoma SH-SY5Y cells were cultured in Eagle's medium/Ham's F-12 50/50 Mix (DMEM/F12, Cellgro by Mediatech, Inc.) supplemented with 10% fetal bovine serum (FBS) and 1% penicillin/streptomycin. The cells were seeded into 96 well plates (2×10^4 cells per well) for OGD and measurements of toxicity, 6 cm dishes (5×10^5 cells per dish) for measurements of sulfide and reduced-glutathione (GSH), or 10 cm dishes (1×10^6 cells per dish) for measurements of intracellular calcium. Cell culture medium was replaced every 2 days, and the cultures were maintained at 37° C. in 95% air/5% CO2 in a humidified incubator. Cells were used after reaching 80% confluent.
Concentration of free sulfide in SH-SY5Y cells was measured using high performance liquid chromatography (HPLC) (Tokuda et al. (2012) Antioxidants & Redox Signaling). Briefly, SH-SY5Y cells were seeded into 6 cm dishes (5×10^5 cells per dish). After being 80% confluent, 20 μM H2S donor was added to the dish and incubated at 37° C. Cells were washed with ice-cold Tris-HCl (100 mM, PH 9.5, DTPA 0.1 mM) buffer, scraped, transferred to microfuge tubes, and centrifuged. MBB (10 mM in acetonitrile, 50 μl) was added to 100 μl of supernatant. After 30 minutes of incubation at room temperature in dark, 50 μl of 200 mM 5-sulfosalicylic acid (SSA) was added. After centrifugation, supernatant was analyzed by HPLC. For sulfide levels in medium, after centrifugation, supernatant was used for MBB reaction as above.
In contrast, incubation of SH-SY5Y cells with S-memantine increased intracellular sulfide level more markedly than incubation with ACS48 at all time points after addition (˜10 fold at 4 hours, P<0.001 by two-way ANOVA with Bonferroni post-test). In a separate experiment, we examined whether or not incubation with memantine itself or incubation with ACS48 and memantine would affect intracellular sulfide levels in SH-SY5Y cells.

[2] = test system: phosphorylated tau protein at serine 202 and threonine 205; assay: LPS-induced tau phosphorylation in mice hippocampus (immunoblot); type: in vivo
[3] = test system: SH-SY5Y cells; assay: Oxygen-glucose deprivation (OGD) of SH-SY5Y cells, viability by LDH release, MTT and CV assays; type: cell-based, Human
Description: OGD for SH-SY5Y was performed by placing cells in a hypoxia chamber ([…] Technologies Inc.) for 15 hours, followed by 24 hours of reoxygenation as previously reported (FIG. 3A) (Serra-Pérez et al. (2008) Journal of Neurochemistry 106, 1237-1247). Briefly, medium was replaced with glucose-free RPMI 1640 with L-glutamine (Cellgro by Mediatech, Inc), deoxygenated with anaerobic gas mixture (93% N2-5% CO2-2% H2) for 30 minutes before use. Cells were then placed in a hypoxia chamber, flushed with anaerobic gas mixture (93% N2-5% CO2-2% H2) and incubated at 37° C. After 15 hours of hypoxia, medium was replaced with DMEM/F12 and incubated for 24 hours at 37° C. in 95% air/5% CO2 in a humidified incubator.
(§1) A microtiter plate containing cells was centrifuged at 250×g for 10 minutes and the supernatant was used for LDH measurement with LDH Cytotoxicity Detection Kit (Roche). After aspirating the medium, remaining cells were washed with PBS, then, 100 μl of 1% Triton-X was added to each well, followed by incubation at 37° C. for 30 minutes. Medium and lysates were used for LDH measurement at wavelength 492 nm. Percentage of released LDH was calculated with following formula: {LDH (medium)/LDH (medium+cell)×100}. Average value of control (cells without OGD) was deducted as background.
Ten μl of thiazolyl blue tetrazolium bromide solution (5 mg/ml in PH 7.4 PBS) was added to each well containing 100 μl of medium and cells, followed by incubation at 37° C. for 4 hours in the dark. Isopropanol (100 μl, 0.04 N HCl) was added to dissolve blue dye. After dissolved completely, absorbance was measured with plate-reader (Synergy 2, BioTek Instrument) at test wavelength 570 nm and reference wavelength 670 nm. Cell viability was determined by absorbance at 570 nm and reported as ratio to control cells (without OGD).
After aspirating culture medium, cells were fixed and stained by 0.5% CV in 95% (v/v) ethanol for 5 minutes, then washed by tap water several times. After taking photographs, 1% sodium dodecylsulfate solution was added to each well to elute blue dye. Absorbance was measured with plate-reader at 595 nm of wavelength. Values were shown as ratio to control (cells without OGD).

[4] = test system: mice challenged with LPS; assay: LPS-induced cognitive impairment, Morris water-maze
[5] = test system: Aβ1-42
[6] = test system: SH-SY5Y; assay: Intracellular GSH levels in SH-SY5Y (HPLC); type: cell-based, Human
Description: Intracellular GSH level of SH-SY5Y was measured using HPLC method as previously reported (Kimura et al. (2009) Antioxidants & Redox Signaling 12, 1-13). Briefly, cells were seeded into 6 cm dishes (5×10^5 cells per dish) and treated with 50 μM H2S donors or memantine with or without 2 mM glutamate for 8 hours, followed by washing with ice-cold PBS. Cells were scraped and transferred to a microfuge tube and sonicated. Some fraction of lysate was used for protein assay. After centrifugation, 75 μl of supernatant, 26 μl of 2-(cyclohexylamino) ethanesulfonic acid (CHES, 0.5 M, PH 8.4), and 4 μl of 50 μM MBB were mixed and incubated at room temperature in dark for 30 minutes. Acetic acid (100 μl, 30% v/v) was added, followed by centrifugation at 15,000×g for 10 min after 5 min incubation of the tube on ice. The supernatant was analyzed using HPLC at wavelength of λex=370 nm and λem=486 nm.

[7] = test system: murine primary cortical neurons; assay: Intracellular calcium level [Ca2+]i (Fura-2/AM) with or without glutamate; type: cell-based, mice
[8] = test system: SH-SY5Y cells; assay: MPP+-induced cytotoxicity in SH-SY5Y cells (CV, MTT assay); type: cell-based, Human; conditions: 24 h
Description: The abilities of ACS48-amantadine, CTBA-memantine, S-memantine, and ACS81-memantine to improve viabilities of SH-SY5Y cells incubated with MPP^+, which has been used for an in-vitro Parkinson's disease model (Robert et al. (2012) Cell Death and Differentiation, 19, 1769-1778), were examined. SH-SY5Y cells (96 well plate, 2×10^5 cells/well) were incubated with MPP^+ (Sigma-Aldrich) at 5 mM in DMEM/F12 at 37° C. for 24 h. ACS48-amantadine, CTBA-memantine, S-memantine, or ACS81-memantine was dissolved in DMSO and added at 5 or 20 μM to the medium 30 min after the addition of MPP^+. The final concentration of DMSO in the medium was adjusted to 0.5% (v/v). Cell viabilities of SH-SY5Y 24 h after the addition of MPP^+ were measured by CV assay or MTT assay.

[9] = test system: murine primary cortical neurons; assay: Amyloid beta-induced toxicity in murine primary cortical neurons (LDH release, MTT); type: cell-based, mice; conditions: 24 hours incubation with Aβ1-42 at 20 μM; for Cell viabilities after Aβ1-42: compound 5, 10 or 30 μM
Description: FIG. 13A-B is a set of two bar graphs depicting cell viability of murine primary cortical neurons exposed to 20 μM amyloid beta (Aβ) and treated with memantine, ACS48, or S-memantine at 5, 10, or 30 μM. Cell viability was estimated by LDH release assay in the left graph and MTT assay in the right graph.

[10] = test system: murine primary cortical neurons; assay: Cytotoxicity of H2S donors to murine primary cortical neurons (LDH release); type: cell-based, mice; conditions: 24 hours
Description: as §1

[11] = test system: SH-SY5Y; assay: Amyloid beta-induced toxicity in SH-SY5Y (LDH release, MTT); type: cell-based, Human; conditions: 24 hours incubation with Aβ1-42 at 20 μM; for Cell viabilities after Aβ1-42: compound 20 or 50 μM
Description: FIG. 12A-B is a set of two bar graphs showing cell viability of SH-SY5Y cells exposed to 20 μM amyloid beta (Aβ) and treated with memantine, ACS48, or S-memantine at 20 or 50 μM. Cell viability was estimated by LDH release assay in the left graph and MTT assay in the right graph.

[12] = test system: phosphorylated Akt at threonine 308; assay: Immunoblot of phosphorylated Akt in SH-SY5Y after OGD; type: cell-based, Human; conditions: 50 μM added 8 hours after end of OGD
[13] = Plasma and cerebral sulfide levels of mice after intraperitoneal administration; type: in vivo; conditions: 25 μmol/kg intraperitoneal, 90 minutes after administration
Source text: Blood was drawn from left ventricle and centrifuged to collect the plasma. After perfusion with Tris-HCl buffer via left ventricle, brain was harvested, homogenized in Tris-HCl, and centrifuged. Plasma and supernatant of brain homogenate were derivatized with MBB and analyzed by HPLC.

[14] = 20 μM added 30 min after 5 mM MPP+
[15] = time- and dose-range studies, SH-SY5Y

Compound: Sodium sulfide [Na2S]
- Intracellular sulfide levels [1]: increased intracellular sulfide levels
- Time of peak intracellular sulfide levels after addition [1]: around 1.5 hours
- LPS-induced tau phosphorylation at serine 202 and threonine 205 in mice hippocampus ([2]; mouse, in vivo): prevented LPS-induced tau phosphorylation
- Cell viability after OGD (LDH release) [3]: did not improve cell viability; also recorded: failed to improve cell viability; also recorded: No significant difference
- Latency until getting platform in Morris water-maze test ([4]; mouse, in vivo): improved latency
- Aβ1-42 accumulation in mice cortex, or hippocampus ([5]; mouse, in vivo): prevented Aβ1-42 accumulation
- Prevention of Aβ1-42 accumulation compared with memantine ([5]; mouse, in vivo): prevented Aβ1-42 accumulation more markedly than did memantine
- Intracellular GSH levels [6]: increased intracellular GSH levels; also recorded: restored intracellular GSH levels
- Glutamate-induced calcium accumulation [7]: augmented glutamate-induced calcium accumulation
- Increase of intracellular calcium [Ca2+]i [7]: increased

Compound: O=C(NC12CC3CC(CC(C3)C1)C2)c1ccc(-c2cssc2=S)cc1 [ACS48-amantadine]
- Cell viabilities of SH-SY5Y cells after MPP+ ([8]; 5 μM added 30 min after 5 mM MPP+): improved cell viabilities
- Cell viabilities of SH-SY5Y cells after MPP+ [8, 14]: improved cell viabilities

Compound: CC12CC3CC(C)(C1)CC(N)(C3)C2 [memantine]
- Effect of memantine on intracellular sulfide levels ([1]; 20 μM memantine, cells incubated with or without ACS48 20 μM): did not affect intracellular sulfide levels
- Cell viabilities after Aβ1-42 [9]: improved cell viabilities
- LPS-induced tau phosphorylation at serine 202 and threonine 205 in mice hippocampus ([2]; 45 μmol/kg pretreatment): prevented LPS-induced tau phosphorylation
- Swimming speed in Morris water-maze test ([4]; 45 μmol/kg i.p.): did not change it
- Swimming speed in Morris water-maze test ([4]; 90 μmol/kg i.p.): slowed swimming speed
- LDH release caused by Na2S or ACS48 on co-incubation with memantine ([10]; 50 μM Na2S or ACS48 plus 50 μM memantine): abolished
- Cell viabilities after Aβ1-42 [11]: improved cell viabilities
- Aβ1-42 accumulation in mice cortex, or hippocampus ([5]; 45 μmol/kg pretreatment, LPS challenge for 7 days): prevented Aβ1-42 accumulation
- GSH levels, memantine per se ([6]; 50 μM, 8 hours): did not affect GSH levels
- Glutamate-induced calcium accumulation ([7]; 20 μM, 100 μM glutamate): suppressed calcium accumulation
- Akt phosphorylation after OGD [12]: did not affect Akt phosphorylation

Compound: O=C(O)c1ccc(-c2cssc2=S)cc1 [ACS48, 4-(3-thioxo-3H-1,2-dithiol-4-yl)-benzoic acid]
- Time of peak intracellular sulfide levels after addition ([1]; 20 μM, SH-SY5Y): around 1.5 hours
- Intracellular sulfide levels ([1]; 20 μM, SH-SY5Y, 37° C.): increased intracellular sulfide levels
- Cell viabilities after Aβ1-42 compared with memantine [9]: improved cell viabilities more markedly than did memantine
- Cell viabilities after Aβ1-42 [9]: improved cell viabilities
- Most effective dose to improve viability after OGD [3, 15]: 50 µM
- Most effective time point of addition after the end of OGD [3, 15]: 8 h
- LDH release (cytotoxicity) ([10]; 50 μM, without memantine): markedly increased LDH release
- Plasma sulfide levels [13]: increased plasma sulfide levels
- Cell viabilities after Aβ1-42 compared with memantine [11]: improved cell viabilities more markedly than did memantine
- Cell viabilities after Aβ1-42 [11]: improved cell viabilities
- Intracellular GSH levels ([6]; 50 μM, 8 hours, with 2 mM glutamate): restored intracellular GSH levels
- Intracellular GSH levels ([6]; 50 μM, 8 hours, without glutamate): increased intracellular GSH levels
- Glutamate-induced calcium accumulation ([7]; 20 μM, 100 μM glutamate): augmented glutamate-induced calcium accumulation
- Increase of intracellular calcium [Ca2+]i ([7]; 20 μM, without glutamate): increased

Compound: CC12CC3CC(C)(C1)CC(NC(=O)c1ccc(C(N)=S)cc1)(C3)C2 [CTBA-memantine]
- Cell viabilities of SH-SY5Y cells after MPP+ [8, 14]: improved cell viabilities
